Experiments:
[1] = system: CD4+ T cells induced to differentiate into Treg; experiment: Differentiation and function of Treg cells (Foxp3 expression); assay type: cell-based, C57BL/6J mice; details: 25 μM final concentration; culture for 3 days in medium containing IL-2 and TGF-beta1; control about 19%
Description: • 8-week-old C57BL/6J mice were purchased and adapted for 1 week, and then CD4+ T cells were isolated from spleens and lymph nodes. Differentiation of regulatory T cells was transferred through a medium containing IL-2 and TGF-beta1, and through culture for 3 days, it was confirmed that about 19% of a Foxp3 transcription factor was expressed in the control group. Each substance was treated at a final concentration of 25 μM.

[2] = system: CD4+ T cells induced to differentiate into Th17; experiment: Differentiation and functional enhancement activity of Th17 cells (IL-17 expression); assay type: cell-based, C57BL/6J mice; details: 25 μM final concentration; culture for 3 days under Th17 differentiation conditions; Veh control about 35%
Source text: 8-week-old C57BL/6J mice were purchased and adapted for 1 week, and then CD4+ T cells were isolated from spleens and lymph nodes. Th17 cell differentiation was induced by media containing IL-6, TGF-beta1, IL-1beta, anti-IFN-gamma, and anti-IL-4, and through culturing for 3 days, it was confirmed that about 35% of IL-17 cytokine was expressed in a Veh group, which was a control group treated with only a solvent of the compound, thereby establishing basic conditions for the differentiation of Th17 cells. Under the conditions of differentiation of Th17 cells, each substance was treated at a final concentration of 25 μM.
As a result, as may be seen in the drawings, it was confirmed that Compounds 1 to 3 increased the IL-17 cytokine expression by 70%, 63%, and 62%, respectively, and through this, it was confirmed that the three compounds were able to improve the differentiation and function of Th17 cells.

SMILES | reduced the Foxp3 transcription factor expression [1] [%] | increased the IL-17 cytokine expression [2] [%]
COc1ccc(CCO[C@@H]2O[C@H](CO)[C@@H](OC(=O)/C=C/c3ccc(O)c(OC)c3)[C@H](O[C@@H]3O[C@H](CO)[C@@H](O)[C@H](O)[C@H]3O)[C@H]2O[C@@H]2O[C@H](CO)[C@@H](O)[C@H](O)[C@H]2O)cc1O [Compound 2, chionoside I] | 8.3 | 63
CO[C@@H]1C[C@H]2[C@H](OC(=O)c3ccc(O)c(O)c3)[C@@H]3O[C@]3(CO)[C@H]2C(O[C@@H]2O[C@H](CO)[C@@H](O)[C@H](O)[C@H]2O)O1 (stereo partly drawn) [Compound 1, veroninakaioside G] | 4.4 | 70
COc1cc(/C=C/C(=O)OC[C@H]2O[C@@H](OCCc3ccc(O)c(OC)c3)[C@H](O)[C@@H](O[C@@H]3O[C@H](CO)[C@@H](O)[C@H](O)[C@H]3O[C@@H]3O[C@H](CO)[C@@H](O)[C@H](O)[C@H]3O)[C@@H]2O)ccc1O [Compound 3, veroninakaioside H] | 6.6 | 62

From patent US20240216462A1, “PHARMACEUTICAL COMPOSITION FOR ENHANCING IMMUNITY OR ANTI-CANCER ACTIVITY INCLUDING EXTRACT OF PSEUDOLYSIMACHION NAKAIANUM (OHWI) T.YAMAZ AS ACTIVE INGREDIENT” (KOREA INSTITUTE OF SCIENCE AND TECHNOLOGY, priority 2022, published 2024)
